“Also recorded” adds a separate entry of the source.
Columns and labels:
HIV DNA [1] = test: PCR with human white blood cells, 2 mM polyamine, varying number of HIV DNA copies (Experiment No. 2); type: biochemical, HIV-1; conditions: polyamine 2 mM; for number of HIV DNA copies detected (lowest): 40 cycles, copies/tube
Procedure: White blood cells were obtained by taking 14 μl (7×10^4 WBC) of human blood, centrifuging it and removing therefrom the supernatant. Various polyamines (2 mM), HIV DNA (1000, 100 10 and 0 copies/tube) and PCR core solution were added to the white blood cells thus collected for carrying out PCR (total 50 μl ). The same PCR core solution was used as in Experiment No. 1. The PCR was carried out for 40 cycles under the same conditions as in Experiment 1, and the amplification detection was carried out as in Experiment No. 1.

[2] = system: DNA from LT Escherichia coli; type: biochemical; conditions: for reduction of inhibition of PCR due to feces (summary): human feces samples; for maximum concentration of feces at which amplification bands are observed, relative to no addition of polyamine (J) / appearance of amplification bands: polyamine 1 mM; for maximum concentration of feces at which amplification bands are observed, relative to no addition of polyamine (J): 40 cycles; for appearance of amplification bands: human feces
Procedure: A sample was obtained by making an 8% suspension of human feces in TE buffer and subjecting it to a heat treatment at 95° C. for 10 minutes. […] The detection was carried out as in Experiment No. 1.

[3] = system: genomic DNA purified from cotton leaves; conditions: DNA isolated from plants; report by Wan and Wilkins; cited from earlier work
HIV DNA [4] = test: PCR with human white blood cells, varying polyamine concentration (Experiment No. 1); type: biochemical, HIV-1
Procedure: White blood cells were obtained by taking 14 μl (7×10^4 WBC) of human blood, centrifuging it and removing therefrom the supernatant. Various kinds of polyamine, HIV DNA (100 copies/tube) and PCR core solution were added to the white blood cells thus collected for carrying out PCR (total 50 μl).
After a preheating process of 4 minutes at 94° C., the PCR was carried out for 50 cycles under the conditions of 94° C. for 30 seconds, 60° C. for 1 minute and 72° C. for 1 minute, followed by a polymerization process at 72° C. for 7 minutes. After the PCR was completed, DNAs were detected by electrophoresis with 3% agarose gel containing TAE buffer (40 mM Tris-acetate; 1 mM EDTA, pH 8.0) with 0.5 μg/ml etidium bromide by using 5 μl of the reaction mixture.
and the numerals (1-7) in FIG. 6 indicate the final concentration of polyamine as follows: […]

DNA = test: PCR with soil or tobacco leaf extract and spermidine (Example No. 3); type: biochemical; conditions: extract from soil or tobacco leaf (Groups B and C, Lanes 2-4)
Procedure: Used as the sample was 100 mg of sandy soil from a rice field or 100 mg of homogenized tobacco leaf. The sample was dissolved with 0.1 M EDTA and 0.1% SDS, purified with weakly negative ion-exchange resin (DEAE-Sepharose, fast flow (Pharmacia)), and eluted with 400 μl of 10 mM of tris-HCl (pH 7.0) containing 1 M NaCl. The extract which was colored light brown or light green indicated existence of much contamination of impurities for rough purification material. PCR was carried out after polyamine and PCR core solution were added to the extract. PCR core solution was prepared by removing KCl from the core solution used in Example No. 1. The amount of the PCR core solution was 24 μl, and 3 μl each of DNA-containing extract and spermidine solution was added thereto. PCR and detection of amplified DNA was carried out as in Example No. 1.
In FIG. 5, A indicates a positive control group containing only DNA, B indicates a group with soil extract mixed thereto, and C indicates a group with a tobacco leaf extract mixed thereto. The final concentration of polyamine was zero in Lane 1, 0.5 mM in Lane 2, 1 mM in Lane 3, 2 mM in Lane 4, 4 mM in Lane 5 and 8 mM in Lane 6. Lane M indicates a molecular weight marker.

[5] = system: β-globin coding region of the mouse; test: PCR on white blood cells of mouse blood added to human blood, with spermidine (Example No. 2); type: biochemical; conditions: spermidine 2 mM, no purification of DNA
Procedure: Used as the sample was 23 μl of human blood (with 6000 white blood cells/microliter) into which 5 μl of mouse blood, diluted step-wise with a phosphate buffer, was added. After the sample was subjected to a lysis process of red blood cells, the white blood cells were precipitated by centrifugation and the supernatant was removed. Polyamine and PCR core solution were added to the precipitated white cells. The primers for the PCR were oligonucleotide (P3, sequence number=3) homologous to plus-chain and oligonucleotide (P4, sequence number=4) homologous to minus-chain, which are located in the β-globin coding region of the mouse and what gives 174 bp PCR products: where
The same PCR core solution was used as in Example No. 1 except that the primers were P3 and P4. The total amount of the PCR reaction solution was 100 μl, and 10 μl of spermidine solution (final concentration: 2 mM) was added. PCR and detection of amplified DNA were carried out as in Example No. 1. […] If polyamine is added (Group A), by contrast, the inhibition of the amplification reaction is effectively removed, and the presence of PCR products can be detected if there are as few as about ten white blood cells of the mouse without any purification of DNA.

| Compound | number of HIV DNA copies detected (lowest) (HIV DNA [1]) | reduction of inhibition of PCR due to feces (summary) [2] | maximum concentration of feces at which amplification bands are observed, relative to no addition of polyamine (J) [2] | other results |
| --- | --- | --- | --- | --- |
| NCCNCCNCCN [F, Triethylenetetramine] | 10 copies | good results | 16 times | – |
| NCCNCCNCCNCCN [H, Tetraethylenepentamine] | 10 copies | good results | – | – |
| NCCNCCN [D, Diethylenetriamine] | 10 copies | – | 8 times | sensitivity relative to E (HIV DNA [1]): about 10 times; appearance of amplification bands [2]: brighter and thicker amplification bands than E |
| NCCN [A, Ethylenediamine] | 10 copies | – | 4 times | – |
| NCCCCNCCCN [E, Spermidine] | – | – | 8 times | optimum concentration [3]: 0.2 to 1 mM; amplification (HIV DNA [4]; polyamine concentration 0.25 mM, human blood): No amplification; polyamine concentration at which PCR products can be detected (DNA): 0.5 to 2 mM; number of white blood cells of the mouse at which PCR products can be detected [5]: about ten |
| NCCCNCCCCNCCCN [G, Spermine] | could not be detected | hardly any effect | 4 times | appearance of amplification bands [2]: only thin amplification bands; effect on PCR-inhibiting substances derived from blood (HIV DNA [4]; polyamine 0.125-8 mM, human white blood cells, 100 copies HIV DNA/tube, 50 cycles): hardly any effect; also recorded: no such effect was observed |
| Trimethylenediamine [B] | 10 copies | hardly any effect | twice as large | – |
| NCCCCN [C, Putrescine] | 10 copies | hardly any effect | twice as large | – |
